In publication PMC6458069 (Molecular microbiology, 2019):
Changes are numbered by the printed parent chain. In brackets after ≈: the same amount, converted by molar mass. Where two headings read alike, the source gives them in different places.

Columns and labels:
MtVKOR = MtVKOR (Mycobacterium tuberculosis, UniProt I6X5W1); test: In vitro ubiquinone reduction assay with purified MtVKOR; type: biochemical, M. tuberculosis
[1] = target: human protein disulfide isomerase (PDI) (Homo sapiens, UniProt P07237); test: PDI insulin reduction assay; type: biochemical
Chain of human protein disulfide isomerase (PDI) (P07237 18-508): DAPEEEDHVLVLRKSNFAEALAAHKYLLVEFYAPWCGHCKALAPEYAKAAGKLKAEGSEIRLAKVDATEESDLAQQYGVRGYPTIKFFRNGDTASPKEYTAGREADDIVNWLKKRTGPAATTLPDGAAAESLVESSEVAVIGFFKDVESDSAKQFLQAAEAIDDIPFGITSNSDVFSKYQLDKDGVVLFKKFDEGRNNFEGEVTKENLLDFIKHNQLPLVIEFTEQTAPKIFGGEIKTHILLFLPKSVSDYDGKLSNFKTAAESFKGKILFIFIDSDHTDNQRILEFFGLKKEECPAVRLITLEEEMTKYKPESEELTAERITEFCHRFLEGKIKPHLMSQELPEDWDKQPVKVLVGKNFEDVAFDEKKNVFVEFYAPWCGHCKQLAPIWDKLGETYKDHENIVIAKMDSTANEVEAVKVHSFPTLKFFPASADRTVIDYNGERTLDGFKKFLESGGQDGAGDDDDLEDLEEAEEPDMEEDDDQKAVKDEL

[2] = tested on: MtVKOR expressed in E. coli; type: cell-based, M. tuberculosis
M. tuberculosis H37Rv = M. tuberculosis H37Rv growth inhibition; conditions: alamar blue assay, ±SD
[3] = target: T1, PaDsbB1 expressed in E. coli (Pseudomonas aeruginosa, UniProt Q02TM7); type: cell-based, P. aeruginosa; conditions: agar plates, HTS control
T1 sequence (Q02TM7 1-169): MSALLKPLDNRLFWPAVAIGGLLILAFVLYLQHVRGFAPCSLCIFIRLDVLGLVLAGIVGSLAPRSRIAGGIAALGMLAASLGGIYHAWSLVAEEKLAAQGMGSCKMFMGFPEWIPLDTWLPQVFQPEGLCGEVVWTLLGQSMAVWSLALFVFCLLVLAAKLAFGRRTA

[4] = tested on: elastase (LasB) activity of P. aeruginosa wild type; test: Elastase in vivo assay, wild type P. aeruginosa; type: cell-based; conditions: Pseudomonas aeruginosa, 15 h, read-out: Elastase in vivo assay IC50, WT
PaDsbB1 (ΔdsbB2) = target: T2, PaDsbB1 (ΔdsbB2) (Pseudomonas aeruginosa, UniProt Q02TM7); test: Elastase in vivo assay, ΔdsbB2 mutant; type: cell-based, P. aeruginosa
T2 sequence (Q02TM7 1-169): T1 sequence (Q02TM7 1-169)

PaDsbB1 = target: T3, PaDsbB1 (Pseudomonas aeruginosa, UniProt Q02TM7, C154Y); test: In vitro ubiquinone reduction assay with purified PaDsbB1; type: biochemical, P. aeruginosa
T3 sequence (Q02TM7 1-169 C154Y): T1 sequence (Q02TM7 1-169) with C154Y

PaDsbB2 = target: T4, PaDsbB2 (Pseudomonas aeruginosa, UniProt Q02EA7, C17A/C53A); test: In vitro ubiquinone reduction assay with purified PaDsbB2; type: biochemical, P. aeruginosa
T4 sequence (Q02EA7 1-163 C17A/C53A): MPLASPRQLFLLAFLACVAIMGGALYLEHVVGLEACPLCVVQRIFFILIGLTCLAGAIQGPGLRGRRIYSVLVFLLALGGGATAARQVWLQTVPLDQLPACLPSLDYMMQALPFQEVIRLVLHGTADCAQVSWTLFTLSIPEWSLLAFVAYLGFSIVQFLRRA

EcDsbB = target: T5, EcDsbB (Escherichia coli, UniProt P0A6M2, C49V/C8A); test: In vitro ubiquinone reduction assay with purified EcDsbB; type: biochemical, E. coli
T5 sequence (P0A6M2 1-176 C8A/C49V): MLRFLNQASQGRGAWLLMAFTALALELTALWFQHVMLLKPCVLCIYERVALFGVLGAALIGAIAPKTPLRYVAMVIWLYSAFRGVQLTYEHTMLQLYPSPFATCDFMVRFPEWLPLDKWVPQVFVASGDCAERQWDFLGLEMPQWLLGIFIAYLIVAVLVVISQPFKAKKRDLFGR

[5] = target: T6, RnVKOR expressed in E. coli (Rattus norvegicus, UniProt Q6TEK4, DEL31-33); test: Agar β-Gal^dbs assay, E. coli expressing RnVKOR; type: cell-based; conditions: FSH250 strain (Figure 4)
T6 sequence (Q6TEK4 with tags, fused parts or gaps DEL31-33): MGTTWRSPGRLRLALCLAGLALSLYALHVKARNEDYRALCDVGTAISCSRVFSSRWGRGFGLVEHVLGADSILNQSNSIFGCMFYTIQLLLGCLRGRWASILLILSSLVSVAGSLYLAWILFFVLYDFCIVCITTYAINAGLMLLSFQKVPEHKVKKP

[6] = tested on: M. tuberculosis JR1740 strain; type: cell-based; conditions: JR1740 ± ATc
[7] = read-out: In vitro assay MtVKOR Ki, 1–100 μM Ubiquinone-1, ±SD
[8] = read-out: PDI IC50, insulin reduction assay, Table 2, 95% CI in parenthesis

Nc1ncn([C@@H]2O[C@H](CO)[C@@H](O)[C@H]2O)c(=O)n1 [MT9]
Ki (MtVKOR; [7]): 2 ± 0.05 µM | IC50 [1, 8]: > 100 µM | MIC against MtVKOR when expressed in E. coli (Figure 3) [2]: 0.44 µM (≈ 0.107 µg/mL) | In vivo assay (MIC) (M. tuberculosis H37Rv): >979 ± 0 µM

O=C1c2ccccc2C(=O)C1c1ccc(Br)cc1 [Bromindione, reference compound]
IC50 (MtVKOR): 5 ± 0.73 µM | Ki (MtVKOR): 1 ± 0.09 µM | IC50 [1]: > 100 µM | Inhibition of MtVKOR in E. coli screening strain (control) ([2]; agar plates, HTS control): inhibits | Inhibition of PaDsbB1 in E. coli screening strain (control) [3]: but not PaDsbB1 | In vivo assay (MIC) (M. tuberculosis H37Rv): 250 ± 0 µM

NC(=O)c1nc(Cl)c(Cl)c(Cl)c1Cl [PA1]
IC50 [4]: 280 µM | IC50 (PaDsbB1 (ΔdsbB2)): 121 µM | IC50 (PaDsbB1): 530 ± 60 µM | IC50 (PaDsbB2): 600 ± 50 µM | IC50 (EcDsbB): 150 ± 50 µM | Ki (EcDsbB): 100 ± 30 µM | IC50 [1]: > 100 µM | Inhibition of PDI activity (in words) ([1]; insulin reduction assay): does not target | Inhibition of RnVKOR expressed in E. coli [5]: does not target

O=c1c(Cl)c(Cl)cnn1Cc1ccccc1Cl [compound 12, reference compound]
IC50 [4]: 229 µM | IC50 (PaDsbB1 (ΔdsbB2)): 8.6 µM | IC50 (PaDsbB1): 4.1 ± 0.6 µM | Ki (PaDsbB1): 3 ± 0.2 µM | IC50 (PaDsbB2): 6 ± 1 µM | Ki (PaDsbB2): 4 ± 0.2 µM | IC50 (EcDsbB): 0.014 ± 0.0001 µM | Ki (EcDsbB): 0.005 ± 0.001 µM | IC50 [1]: > 100 µM | Inhibition of PaDsbB1 in E. coli screening strain (control) [3]: inhibits

Cn1c(=O)c([N+](=O)[O-])c(Cl)c2ccccc21 [PA3]
IC50 [4]: 646 µM | IC50 (PaDsbB1 (ΔdsbB2)): 9 µM | IC50 (PaDsbB1): 6 ± 0.6 µM | Ki (PaDsbB1): 2.8 ± 0.2 µM | IC50 (PaDsbB2): 3 ± 0.11 µM | Ki (PaDsbB2): 7.5 ± 0.8 µM | Ki (EcDsbB): 13 ± 1.5 µM | IC50 [1]: 98 µM | Inhibition of PDI activity (in words) ([1]; insulin reduction assay): inhibited

c1ccc(Nc2nc3nonc3nc2Nc2ccccc2)cc1 [MT7]
IC50 [1, 8]: > 100 µM | MIC in VKOR knockdown (induced) versus non-induced strain (in words) [6]: lower MICs | Inhibition of RnVKOR expressed in E. coli [5]: inhibited | In vivo assay (MIC) (M. tuberculosis H37Rv): 41 ± 0 µM

O=C(Nc1ccccc1)c1cc(Cl)ccc1O [MT1]
IC50 [1, 8]: > 100 µM | MIC in VKOR knockdown (induced) versus non-induced strain (in words) [6]: lower MICs | Inhibition of RnVKOR expressed in E. coli [5]: inhibited | In vivo assay (MIC) (M. tuberculosis H37Rv): 50.5 ± 0 µM

OC(CNCc1ccccc1)Cn1c2ccc(Cl)cc2c2cc(Cl)ccc21 (centres unmarked) [MT2]
Ki (MtVKOR; [7]): 4 ± 0.3 µM | IC50 [1, 8]: > 100 µM | MIC in VKOR knockdown (induced) versus non-induced strain (in words) [6]: lower MICs | Inhibition of RnVKOR expressed in E. coli [5]: inhibited | In vivo assay (MIC) (M. tuberculosis H37Rv): 26.04 ± 9 µM

N#CC(C#N)=NNc1ccccc1 [PA2]
IC50 [4]: > 100 µM | IC50 (PaDsbB1 (ΔdsbB2)): > 100 µM | IC50 (PaDsbB1): 83 ± 17 µM | IC50 (PaDsbB2): 83 ± 13 µM | IC50 (EcDsbB): 37.5 ± 5 µM | Ki (EcDsbB): 30 ± 7 µM | IC50 [1]: 98.3 µM | Inhibition of PDI activity (in words) ([1]; insulin reduction assay): inhibited
